Source: ChEMBL document CHEMBL1201862, “PubChem BioAssay data set” (2004)
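Briefly, cells in 96-well plates were exposed to five compound concentrations for 48 h, and endpoints were estimated by linear interpolation. The concentration for 50% growth inhibition is given as GI50.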 Active and inactive are the calls of the source. No stated cut-off is given here; in the data, active = GI50 up to about 1.1 µM and inactive = higher.

Key:
Assay in all cases: growth of human tumour cells (NCI), 48 h
SK-MEL-5 = system: SK-MEL-5
SR = system: SR
HT-29 = system: HT-29
UACC-62 = system: UACC-62
U-251 = system: U-251
KM12 = system: KM12
CCRF-CEM = system: CCRF-CEM
LOX IMVI = system: LOX IMVI
SK-OV-3 = system: SK-OV-3
786-0 = system: 786-0
MDA-N = system: MDA-N
ACHN = system: ACHN
NCI-H522 = system: NCI-H522
OVCAR-5 = system: OVCAR-5
M14 = system: M14
UACC-257 = system: UACC-257
BT-549 = system: BT-549
OVCAR-3 = system: OVCAR-3
NCI/ADR-RES = system: NCI/ADR-RES
SW-620 = system: SW-620
SK-MEL-2 = system: SK-MEL-2
MOLT-4 = system: MOLT-4
NCI-H460 = system: NCI-H460
SF-539 = system: SF-539
COLO 205 = system: COLO 205
SF-268 = system: SF-268
K562 = system: K562
MDA-MB-435 = system: MDA-MB-435
Hs-578T = system: Hs-578T
UO-31 = system: UO-31
T47D = system: T47D
OVCAR-8 = system: OVCAR-8
HOP-92 = system: HOP-92
SN12C = system: SN12C
MDA-MB-231 = system: MDA-MB-231
OVCAR-4 = system: OVCAR-4
DU-145 = system: DU-145
SK-MEL-28 = system: SK-MEL-28
HOP-62 = system: HOP-62
HL-60 = system: HL-60
PC-3 = system: PC-3
Malme-3M = system: Malme-3M
IGROV-1 = system: IGROV-1
MCF7 = system: MCF7
HCT-116 = system: HCT-116
TK-10 = system: TK-10
RPMI-8226 = system: RPMI-8226
A549 = system: A549
HCT-15 = system: HCT-15
SNB-19 = system: SNB-19
A498 = system: A498
RXF 393 = system: RXF 393
NCI-H226 = system: NCI-H226
EKVX = system: EKVX
SF-295 = system: SF-295
CAKI-1 = system: CAKI-1
NCI-H23 = system: NCI-H23
SNB-75 = system: SNB-75

Compound: CCOC(=O)c1nc2ccccc2nc1Oc1cc(OC)cc(OC)c1
- GI50 (SK-MEL-5): > 100 µM (inactive)
- GI50 (SR): > 100 µM (inactive)
- GI50 (HT-29): > 100 µM (inactive)
- GI50 (UACC-62): > 100 µM (inactive)
- GI50 (U-251): 78.3 µM (inactive)
- GI50 (KM12): 76.9 µM (inactive)
- GI50 (CCRF-CEM): > 100 µM (inactive)
- GI50 (LOX IMVI): > 100 µM (inactive)
- GI50 (SK-OV-3): > 100 µM (inactive)
- GI50 (786-0): 35.5 µM (inactive)
- GI50 (MDA-N): > 100 µM (inactive)
- GI50 (ACHN): > 100 µM (inactive)
- GI50 (NCI-H522): 46.7 µM (inactive)
- GI50 (OVCAR-5): > 100 µM (inactive)
- GI50 (M14): > 100 µM (inactive)
- GI50 (UACC-257): > 100 µM (inactive)
- GI50 (BT-549): > 100 µM (inactive)
- GI50 (OVCAR-3): > 100 µM (inactive)
- GI50 (NCI/ADR-RES): > 100 µM (inactive)
- GI50 (SW-620): > 100 µM (inactive)
- GI50 (SK-MEL-2): > 100 µM (inactive)
- GI50 (MOLT-4): > 100 µM (inactive)
- GI50 (NCI-H460): 39.5 µM (inactive)
- GI50 (SF-539): 61.7 µM (inactive)
- GI50 (COLO 205): 81.5 µM (inactive)
- GI50 (SF-268): 76.7 µM (inactive)
- GI50 (K562): > 100 µM (inactive)
- GI50 (MDA-MB-435): > 100 µM (inactive)
- GI50 (Hs-578T): 27.9 µM (inactive)
- GI50 (UO-31): > 100 µM (inactive)
- GI50 (T47D): > 100 µM (inactive)
- GI50 (OVCAR-8): > 100 µM (inactive)
- GI50 (HOP-92): 6.81 µM (inactive)
- GI50 (SN12C): > 100 µM (inactive)
- GI50 (MDA-MB-231): > 100 µM (inactive)
- GI50 (OVCAR-4): 8.49 µM (inactive)
- GI50 (DU-145): > 100 µM (inactive)
- GI50 (SK-MEL-28): > 100 µM (inactive)
- GI50 (HOP-62): 69.7 µM (inactive)
- GI50 (HL-60): 8.41 µM (inactive)
- GI50 (PC-3): > 100 µM (inactive)
- GI50 (Malme-3M): > 100 µM (inactive)
- GI50 (IGROV-1): > 100 µM (inactive)
- GI50 (MCF7): > 100 µM (inactive)
- GI50 (HCT-116): > 100 µM (inactive)
- GI50 (TK-10): > 100 µM (inactive)
- GI50 (RPMI-8226): > 100 µM (inactive)
- GI50 (A549): > 100 µM (inactive)
- GI50 (HCT-15): > 100 µM
- GI50 (SNB-19): > 100 µM (inactive)
- GI50 (A498): > 100 µM (inactive)
- GI50 (RXF 393): 53.5 µM (inactive)
- GI50 (NCI-H226): > 100 µM (inactive)
- GI50 (EKVX): 60.1 µM (inactive)
- GI50 (SF-295): > 100 µM (inactive)

Compound: NS(=O)(=O)c1ccc(NC(=O)c2cc([N+](=O)[O-])cc([N+](=O)[O-])c2)cc1
- GI50 (SK-MEL-5): 38.7 µM (inactive)
- GI50 (SR): 63.1 µM (inactive)
- GI50 (HT-29): 43.1 µM (inactive)
- GI50 (UACC-62): 15.7 µM (inactive)
- GI50 (U-251): 37.8 µM (inactive)
- GI50 (KM12): 40.4 µM (inactive)
- GI50 (CCRF-CEM): 28.8 µM (inactive)
- GI50 (LOX IMVI): 22.8 µM (inactive)
- GI50 (SK-OV-3): 80.4 µM (inactive)
- GI50 (786-0): 76.2 µM (inactive)
- GI50 (MDA-N): 21.8 µM (inactive)
- GI50 (M14): 47.8 µM (inactive)
- GI50 (UACC-257): 12.8 µM (inactive)
- GI50 (BT-549): > 100 µM (inactive)
- GI50 (OVCAR-3): 25.8 µM (inactive)
- GI50 (NCI/ADR-RES): > 100 µM (inactive)
- GI50 (SW-620): 66.4 µM (inactive)
- GI50 (SK-MEL-2): 34.1 µM (inactive)
- GI50 (MOLT-4): 68.9 µM (inactive)
- GI50 (NCI-H460): 31.8 µM (inactive)
- GI50 (SF-539): 30.7 µM (inactive)
- GI50 (COLO 205): 19.7 µM (inactive)
- GI50 (SF-268): 32.4 µM (inactive)
- GI50 (K562): 43.7 µM (inactive)
- GI50 (CAKI-1): > 100 µM (inactive)
- GI50 (MDA-MB-435): 17.7 µM (inactive)
- GI50 (Hs-578T): 76.4 µM (inactive)
- GI50 (UO-31): 65.6 µM (inactive)
- GI50 (T47D): 18.8 µM (inactive)
- GI50 (OVCAR-8): 47.3 µM (inactive)
- GI50 (HOP-92): 21.7 µM (inactive)
- GI50 (SN12C): 21.7 µM (inactive)
- GI50 (MDA-MB-231): 39.4 µM (inactive)
- GI50 (OVCAR-4): 27.7 µM (inactive)
- GI50 (DU-145): 59.7 µM (inactive)
- GI50 (SK-MEL-28): > 100 µM (inactive)
- GI50 (HOP-62): > 100 µM (inactive)
- GI50 (HL-60): 32.1 µM (inactive)
- GI50 (PC-3): 21.1 µM (inactive)
- GI50 (Malme-3M): 24.8 µM (inactive)
- GI50 (IGROV-1): 23.6 µM (inactive)
- GI50 (MCF7): 19.5 µM (inactive)
- GI50 (NCI-H23): 41.4 µM (inactive)
- GI50 (HCT-116): 45 µM (inactive)
- GI50 (TK-10): > 100 µM (inactive)
- GI50 (SNB-75): > 100 µM (inactive)
- GI50 (RPMI-8226): 30.2 µM (inactive)
- GI50 (A549): 42.6 µM (inactive)
- GI50 (HCT-15): 44.3 µM
- GI50 (SNB-19): 45.9 µM (inactive)
- GI50 (A498): 65.2 µM (inactive)
- GI50 (RXF 393): > 100 µM (inactive)
- GI50 (NCI-H226): 46.5 µM (inactive)
